Experimental data published in ChEMBL document CHEMBL4507285, “Data for DCP probe MRL-SYKi” (2021).

Tests used:
[1] = target: Mitogen-activated protein kinase kinase kinase 10 (Homo sapiens) (UniProt Q02779); conditions: Compound concentration 100.0 nM
[2] = tested on: Phosphatidylinositol 4,5-bisphosphate 3-kinase catalytic subunit alpha isoform (Homo sapiens), P42336 [C420R]; conditions: Compound concentration 100.0 nM
[3] = target: MAP kinase-interacting serine/threonine-protein kinase 1 (Homo sapiens) (UniProt Q9BUB5); conditions: Compound concentration 100.0 nM
[4] = target: Serine/threonine-protein kinase 35 (Homo sapiens) (UniProt Q8TDR2); conditions: Compound concentration 100.0 nM
[5] = target: 3-phosphoinositide-dependent protein kinase 1 (Homo sapiens) (UniProt O15530); conditions: Compound concentration 100.0 nM
[6] = target: Calcium/calmodulin-dependent protein kinase type II subunit beta (Homo sapiens) (UniProt Q13554); conditions: Compound concentration 100.0 nM
[7] = target: Wee1-like protein kinase 2 (Homo sapiens) (UniProt P0C1S8); conditions: Compound concentration 100.0 nM
[8] = target: Muscle, skeletal receptor tyrosine-protein kinase (Homo sapiens) (UniProt O15146); conditions: Compound concentration 100.0 nM
[9] = target: Dual specificity mitogen-activated protein kinase kinase 3 (Homo sapiens) (UniProt P46734); conditions: Compound concentration 100.0 nM
[10] = target: Cyclin-dependent kinase 18 (Homo sapiens) (UniProt Q07002); conditions: Compound concentration 100.0 nM
[11] = target: Wee1-like protein kinase (Homo sapiens) (UniProt P30291); conditions: Compound concentration 100.0 nM
[12] = tested on: Leucine-rich repeat serine/threonine-protein kinase 2 (Homo sapiens), Q5S007 [G2019S]; conditions: Compound concentration 100.0 nM
[13] = target: Mitogen-activated protein kinase 4 (Homo sapiens) (UniProt P31152); conditions: Compound concentration 100.0 nM
[14] = target: D(2) dopamine receptor (Homo sapiens) (UniProt P14416); conditions: Compound concentration 10.0 uM
[15] = target: Peripheral plasma membrane protein CASK (Homo sapiens) (UniProt O14936); conditions: Compound concentration 100.0 nM
[16] = target: Interferon-induced, double-stranded RNA-activated protein kinase (Homo sapiens) (UniProt P19525); conditions: Compound concentration 100.0 nM
[17] = target: 5-hydroxytryptamine receptor 1B (Homo sapiens) (UniProt P28222); conditions: Compound concentration 10.0 uM
[18] = target: Serine/threonine-protein kinase TAO3 (Homo sapiens) (UniProt Q9H2K8); conditions: Compound concentration 100.0 nM
[19] = target: Serine/threonine-protein kinase tousled-like 2 (Homo sapiens) (UniProt Q86UE8); conditions: Compound concentration 100.0 nM
[20] = target: Beta-adrenergic receptor kinase 1 (Homo sapiens) (UniProt P25098); conditions: Compound concentration 100.0 nM
[21] = target: Serine/threonine-protein kinase/endoribonuclease IRE1 (Homo sapiens) (UniProt O75460); conditions: Compound concentration 100.0 nM
[22] = target: Casein kinase I isoform gamma-3 (Homo sapiens) (UniProt Q9Y6M4); conditions: Compound concentration 100.0 nM
[23] = target: Ribosomal protein S6 kinase alpha-4 (Homo sapiens) (UniProt O75676); conditions: Compound concentration 100.0 nM
[24] = target: Phosphatidylinositol 3-kinase catalytic subunit type 3 (Homo sapiens) (UniProt Q8NEB9); conditions: Compound concentration 100.0 nM
[25] = target: Serine/threonine-protein kinase WNK4 (Homo sapiens) (UniProt Q96J92); conditions: Compound concentration 100.0 nM
[26] = target: Ephrin type-B receptor 3 (Homo sapiens) (UniProt P54753); conditions: Compound concentration 100.0 nM
[27] = target: Serine/threonine-protein kinase OSR1 (Homo sapiens) (UniProt O95747); conditions: Compound concentration 100.0 nM
[28] = target: SRSF protein kinase 1 (Homo sapiens) (UniProt Q96SB4); conditions: Compound concentration 100.0 nM
[29] = target: Muscarinic acetylcholine receptor M5 (Homo sapiens) (UniProt P08912); conditions: Compound concentration 10.0 uM
Rattus norvegicus = species on record: Rattus norvegicus; conditions: Compound concentration 10.0 uM
[30] = target: Aurora kinase A (Homo sapiens) (UniProt O14965); conditions: Compound concentration 100.0 nM
[31] = target: Ribosomal protein S6 kinase alpha-3 (Homo sapiens) (UniProt P51812); conditions: Compound concentration 100.0 nM
[32] = target: Serine/threonine-protein kinase MARK2 (Homo sapiens) (UniProt Q7KZI7); conditions: Compound concentration 100.0 nM
[33] = target: Citron Rho-interacting kinase (Homo sapiens) (UniProt O14578); conditions: Compound concentration 100.0 nM
[34] = target: Protein kinase C epsilon type (Homo sapiens) (UniProt Q02156); conditions: Compound concentration 100.0 nM
[35] = target: RAF proto-oncogene serine/threonine-protein kinase (Homo sapiens) (UniProt P04049); conditions: Compound concentration 100.0 nM
[36] = target: Tyrosine-protein kinase JAK3 (Homo sapiens) (UniProt P52333); conditions: Compound concentration 100.0 nM
[37] = target: G protein-coupled receptor kinase 4 (Homo sapiens) (UniProt P32298); conditions: Compound concentration 100.0 nM
[38] = target: Serine/threonine-protein kinase 17A (Homo sapiens) (UniProt Q9UEE5); conditions: Compound concentration 100.0 nM
[39] = target: Ribosomal protein S6 kinase alpha-6 (Homo sapiens) (UniProt Q9UK32); conditions: Compound concentration 100.0 nM
[40] = target: TGF-beta receptor type-2 (Homo sapiens) (UniProt P37173); conditions: Compound concentration 100.0 nM
[41] = target: Receptor-type tyrosine-protein kinase FLT3 (Homo sapiens) (UniProt P36888); conditions: Compound concentration 100.0 nM
[42] = target: Mitogen-activated protein kinase 13 (Homo sapiens) (UniProt O15264); conditions: Compound concentration 100.0 nM
[43] = target: Mitogen-activated protein kinase 12 (Homo sapiens) (UniProt P53778); conditions: Compound concentration 100.0 nM
[44] = target: Tyrosine-protein kinase Fgr (Homo sapiens, UniProt P09769); conditions: Compound concentration 100.0 nM
Chain of Tyrosine-protein kinase Fgr (P09769 2-529 limits assumed): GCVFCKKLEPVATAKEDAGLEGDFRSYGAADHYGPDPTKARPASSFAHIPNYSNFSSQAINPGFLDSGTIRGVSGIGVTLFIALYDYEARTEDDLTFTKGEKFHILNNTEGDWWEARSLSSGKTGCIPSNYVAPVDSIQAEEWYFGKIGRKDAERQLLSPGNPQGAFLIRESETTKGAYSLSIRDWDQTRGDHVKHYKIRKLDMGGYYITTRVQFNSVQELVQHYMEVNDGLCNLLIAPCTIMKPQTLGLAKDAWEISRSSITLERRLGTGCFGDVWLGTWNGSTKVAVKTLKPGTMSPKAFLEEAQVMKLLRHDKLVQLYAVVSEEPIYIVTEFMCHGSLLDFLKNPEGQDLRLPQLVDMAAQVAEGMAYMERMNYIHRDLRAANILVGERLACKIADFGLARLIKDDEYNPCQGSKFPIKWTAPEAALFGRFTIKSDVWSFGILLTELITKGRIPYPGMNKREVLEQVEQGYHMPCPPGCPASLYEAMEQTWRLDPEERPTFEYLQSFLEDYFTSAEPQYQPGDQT

Chain of Beta-adrenergic receptor kinase 1 (Homo sapiens) (P25098 whole entry): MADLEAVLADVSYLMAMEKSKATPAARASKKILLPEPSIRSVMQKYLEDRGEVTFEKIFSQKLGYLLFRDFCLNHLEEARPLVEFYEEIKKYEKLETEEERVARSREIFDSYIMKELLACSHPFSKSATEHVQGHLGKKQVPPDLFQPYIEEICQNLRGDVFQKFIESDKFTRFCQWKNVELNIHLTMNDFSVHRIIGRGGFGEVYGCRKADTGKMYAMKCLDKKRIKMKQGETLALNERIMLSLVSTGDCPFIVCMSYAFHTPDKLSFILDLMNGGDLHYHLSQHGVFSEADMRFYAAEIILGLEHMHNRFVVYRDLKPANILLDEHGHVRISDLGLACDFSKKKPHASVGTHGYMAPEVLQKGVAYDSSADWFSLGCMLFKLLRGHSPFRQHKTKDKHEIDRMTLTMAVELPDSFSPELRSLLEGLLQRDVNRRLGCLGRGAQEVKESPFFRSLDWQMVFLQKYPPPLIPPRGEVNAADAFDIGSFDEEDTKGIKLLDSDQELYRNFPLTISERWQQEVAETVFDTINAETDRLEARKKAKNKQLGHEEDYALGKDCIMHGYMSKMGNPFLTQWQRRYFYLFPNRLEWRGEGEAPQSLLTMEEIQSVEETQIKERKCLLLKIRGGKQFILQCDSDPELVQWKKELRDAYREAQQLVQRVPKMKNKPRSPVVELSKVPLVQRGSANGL
Chain of Ribosomal protein S6 kinase alpha-3 (Homo sapiens) (P51812 whole entry): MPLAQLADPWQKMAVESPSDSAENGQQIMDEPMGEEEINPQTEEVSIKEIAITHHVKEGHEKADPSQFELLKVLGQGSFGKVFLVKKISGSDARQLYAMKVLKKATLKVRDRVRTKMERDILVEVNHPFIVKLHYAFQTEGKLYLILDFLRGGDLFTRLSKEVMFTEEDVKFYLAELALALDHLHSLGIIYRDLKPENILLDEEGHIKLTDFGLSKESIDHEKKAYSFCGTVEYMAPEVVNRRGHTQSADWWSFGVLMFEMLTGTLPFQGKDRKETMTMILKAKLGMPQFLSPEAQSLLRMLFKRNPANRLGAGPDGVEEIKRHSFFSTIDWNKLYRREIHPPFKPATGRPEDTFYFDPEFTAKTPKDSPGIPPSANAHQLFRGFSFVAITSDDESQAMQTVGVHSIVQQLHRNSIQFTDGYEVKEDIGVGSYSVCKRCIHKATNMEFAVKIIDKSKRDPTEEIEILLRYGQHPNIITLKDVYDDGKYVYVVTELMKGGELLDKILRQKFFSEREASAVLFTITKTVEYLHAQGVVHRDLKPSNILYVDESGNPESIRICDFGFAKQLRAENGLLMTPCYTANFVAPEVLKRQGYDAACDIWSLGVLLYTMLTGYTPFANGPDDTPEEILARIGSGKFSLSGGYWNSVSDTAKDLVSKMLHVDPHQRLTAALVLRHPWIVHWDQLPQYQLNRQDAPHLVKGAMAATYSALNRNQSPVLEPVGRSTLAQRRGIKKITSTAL
Chain of D(2) dopamine receptor (Homo sapiens) (P14416 whole entry): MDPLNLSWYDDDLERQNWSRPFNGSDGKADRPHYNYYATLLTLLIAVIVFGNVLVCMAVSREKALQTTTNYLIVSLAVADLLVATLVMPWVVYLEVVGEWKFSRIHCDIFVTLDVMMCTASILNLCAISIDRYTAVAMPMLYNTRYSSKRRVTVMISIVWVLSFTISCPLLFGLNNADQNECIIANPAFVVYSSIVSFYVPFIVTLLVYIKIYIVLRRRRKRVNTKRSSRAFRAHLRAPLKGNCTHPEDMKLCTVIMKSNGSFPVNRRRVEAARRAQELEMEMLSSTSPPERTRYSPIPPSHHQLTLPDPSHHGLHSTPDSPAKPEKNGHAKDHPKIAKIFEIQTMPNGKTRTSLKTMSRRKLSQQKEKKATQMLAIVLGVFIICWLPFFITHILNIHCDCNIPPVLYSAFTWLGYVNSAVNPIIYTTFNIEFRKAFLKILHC
Chain of Dual specificity mitogen-activated protein kinase kinase 3 (Homo sapiens) (P46734 whole entry): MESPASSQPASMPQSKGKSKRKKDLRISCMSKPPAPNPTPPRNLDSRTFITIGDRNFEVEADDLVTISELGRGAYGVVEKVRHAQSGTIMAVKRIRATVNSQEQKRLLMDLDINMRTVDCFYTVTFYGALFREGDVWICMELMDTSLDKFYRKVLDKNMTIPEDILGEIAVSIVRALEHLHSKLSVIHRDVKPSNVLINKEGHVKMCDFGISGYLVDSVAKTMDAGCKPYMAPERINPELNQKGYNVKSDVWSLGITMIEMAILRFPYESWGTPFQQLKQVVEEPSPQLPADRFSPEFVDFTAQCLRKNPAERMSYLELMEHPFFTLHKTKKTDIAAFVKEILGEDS
Chain of Aurora kinase A (Homo sapiens) (O14965 whole entry): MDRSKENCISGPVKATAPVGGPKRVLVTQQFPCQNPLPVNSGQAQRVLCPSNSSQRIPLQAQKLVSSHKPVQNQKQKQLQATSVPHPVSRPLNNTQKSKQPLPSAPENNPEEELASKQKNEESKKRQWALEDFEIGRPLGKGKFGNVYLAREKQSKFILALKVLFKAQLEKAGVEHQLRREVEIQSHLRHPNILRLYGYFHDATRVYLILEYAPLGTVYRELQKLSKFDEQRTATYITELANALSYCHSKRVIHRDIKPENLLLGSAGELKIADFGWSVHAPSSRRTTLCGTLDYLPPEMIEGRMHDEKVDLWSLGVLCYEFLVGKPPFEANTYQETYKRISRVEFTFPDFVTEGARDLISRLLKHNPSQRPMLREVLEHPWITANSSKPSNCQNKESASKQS
Chain of RAF proto-oncogene serine/threonine-protein kinase (Homo sapiens) (P04049 whole entry): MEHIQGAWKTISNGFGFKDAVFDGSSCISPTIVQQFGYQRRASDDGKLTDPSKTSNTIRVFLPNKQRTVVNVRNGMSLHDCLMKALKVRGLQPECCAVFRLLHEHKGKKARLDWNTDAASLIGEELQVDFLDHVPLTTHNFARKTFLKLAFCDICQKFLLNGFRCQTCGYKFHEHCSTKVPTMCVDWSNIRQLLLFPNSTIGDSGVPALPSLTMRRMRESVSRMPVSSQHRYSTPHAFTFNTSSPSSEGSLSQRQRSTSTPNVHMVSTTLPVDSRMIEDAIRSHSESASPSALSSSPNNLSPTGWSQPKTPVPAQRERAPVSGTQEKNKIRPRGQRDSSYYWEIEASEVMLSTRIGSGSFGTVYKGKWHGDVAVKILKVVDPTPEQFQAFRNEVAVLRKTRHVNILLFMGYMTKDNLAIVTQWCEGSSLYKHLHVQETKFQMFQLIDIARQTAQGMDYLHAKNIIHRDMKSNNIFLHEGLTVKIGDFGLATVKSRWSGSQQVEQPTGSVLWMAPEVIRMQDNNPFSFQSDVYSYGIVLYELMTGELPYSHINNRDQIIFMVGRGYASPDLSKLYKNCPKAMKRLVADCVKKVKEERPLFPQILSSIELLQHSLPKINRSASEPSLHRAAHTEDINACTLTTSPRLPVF
Chain of Interferon-induced, double-stranded RNA-activated protein kinase (Homo sapiens) (P19525 whole entry): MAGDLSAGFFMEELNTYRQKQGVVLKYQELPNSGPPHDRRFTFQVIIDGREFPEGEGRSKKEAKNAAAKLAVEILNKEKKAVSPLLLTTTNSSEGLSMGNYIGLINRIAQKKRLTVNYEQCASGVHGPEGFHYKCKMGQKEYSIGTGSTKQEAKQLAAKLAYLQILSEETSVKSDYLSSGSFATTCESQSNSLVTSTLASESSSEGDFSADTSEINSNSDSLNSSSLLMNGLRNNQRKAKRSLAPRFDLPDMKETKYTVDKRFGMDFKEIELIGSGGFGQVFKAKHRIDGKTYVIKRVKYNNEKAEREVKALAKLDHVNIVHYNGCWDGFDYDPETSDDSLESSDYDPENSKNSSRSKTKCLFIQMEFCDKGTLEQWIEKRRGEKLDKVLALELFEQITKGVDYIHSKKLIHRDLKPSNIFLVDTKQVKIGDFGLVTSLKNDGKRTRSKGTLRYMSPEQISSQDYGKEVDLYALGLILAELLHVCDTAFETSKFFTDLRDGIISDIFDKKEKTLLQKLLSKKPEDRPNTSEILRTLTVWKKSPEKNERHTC
Chain of Wee1-like protein kinase (Homo sapiens) (P30291 whole entry, looked up): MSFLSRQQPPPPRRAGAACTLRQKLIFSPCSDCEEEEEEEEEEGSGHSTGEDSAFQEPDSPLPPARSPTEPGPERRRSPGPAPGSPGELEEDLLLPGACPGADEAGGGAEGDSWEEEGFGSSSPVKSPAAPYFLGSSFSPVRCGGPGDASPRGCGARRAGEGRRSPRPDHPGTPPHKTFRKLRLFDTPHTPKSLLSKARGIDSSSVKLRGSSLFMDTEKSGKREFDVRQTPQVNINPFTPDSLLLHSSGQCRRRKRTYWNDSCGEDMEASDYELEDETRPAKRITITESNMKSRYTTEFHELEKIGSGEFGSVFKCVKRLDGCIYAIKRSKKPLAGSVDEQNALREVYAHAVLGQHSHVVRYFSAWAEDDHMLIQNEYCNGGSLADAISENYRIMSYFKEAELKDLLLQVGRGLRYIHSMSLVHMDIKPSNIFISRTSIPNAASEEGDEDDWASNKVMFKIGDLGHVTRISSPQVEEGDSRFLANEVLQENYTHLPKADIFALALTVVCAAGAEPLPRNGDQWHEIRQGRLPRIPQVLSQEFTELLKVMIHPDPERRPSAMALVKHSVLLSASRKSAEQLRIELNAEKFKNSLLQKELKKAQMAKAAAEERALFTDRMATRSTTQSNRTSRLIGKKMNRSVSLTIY

`Cc1ccc(-c2cnc([C@@]3(O)CC[C@H](C(=O)O)C(C)(C)C3)s2)cc1Nc1cccc(C(F)(F)F)n1` [MRL-SYKi-NC] gave a residual activity [1] of 69.4%, a residual activity [2] of 85.3% and a residual activity [3] of 75%. It also gave a residual activity [4] of 97.3%, a residual activity [5] of 95.5% and a residual activity [6] of 95.3%. It also gave a residual activity [7] of 89.5%, a residual activity [8] of 93.6% and a residual activity [9] of 90%. For the same molecule, the residual activity [10] was 100%, the residual activity [11] was 81.4% and the residual activity [12] was 64.9%. It also gave a residual activity [13] of 100%, an inhibition [14] of -5.34% and a residual activity [15] of 100%. The residual activity [16] was 75.8%, the inhibition [17] was 20.2% and the residual activity [18] was 98.6%. The residual activity [19] was 89.9%, the residual activity [20] was 100% and the residual activity [21] was 68.6%. For the same molecule, the residual activity [22] was 89.1%, the residual activity [23] was 95.1% and the residual activity [24] was 67.2%. The residual activity [25] was 31.8%, the residual activity [26] was 100% and the residual activity [27] was 69.9%. For the same molecule, the residual activity [28] was 89.7%, the inhibition [29] was -4.28% and the inhibition (Rattus norvegicus) was 71.8%. It also gave a residual activity [30] of 60.2%, a residual activity [31] of 73.8% and a residual activity [32] of 100%. For the same molecule, the residual activity [33] was 90.9%, the residual activity [34] was 100% and the residual activity [35] was 100%. For the same molecule, the residual activity [36] was 42%, the residual activity [37] was 100% and the residual activity [38] was 96.7%. For the same molecule, the residual activity [39] was 100%, the residual activity [40] was 100% and the residual activity [41] was 100%. It also gave a residual activity [42] of 100%, a residual activity [43] of 98.8% and a residual activity [44] of 100%.

`Cc1cc(Nc2nccc(C)n2)cc(-c2cnc([C@@]3(O)CC[C@H](C(=O)O)C(C)(C)C3)s2)c1` [MRL-SYKi] was tested, and the residual activity [1] was 95.1%, the residual activity [2] was 99.9% and the residual activity [3] was 94.8%. For the same molecule, the residual activity [4] was 100%, the residual activity [5] was 86.5% and the residual activity [6] was 100%. It also gave a residual activity [7] of 100%, a residual activity [8] of 100% and a residual activity [9] of 29.5%. For the same molecule, the residual activity [10] was 100%, the residual activity [11] was 93.1% and the residual activity [12] was 92.3%. The residual activity [13] was 100%, the inhibition [14] was -3.52% and the residual activity [15] was 64.9%. It also gave a residual activity [16] of 77.4%, an inhibition [17] of 11.6% and a residual activity [18] of 100%. The residual activity [19] was 100%, the residual activity [20] was 97.5% and the residual activity [21] was 90.2%. It also gave a residual activity [22] of 99.9%, a residual activity [23] of 100% and a residual activity [24] of 99.6%. It also gave a residual activity [25] of 100%, a residual activity [26] of 100% and a residual activity [27] of 79.9%. It also gave a residual activity [28] of 97.7%, an inhibition [29] of 0.943% and an inhibition (Rattus norvegicus) of 3.63%. The residual activity [30] was 100%, the residual activity [31] was 83.4% and the residual activity [32] was 100%. It also gave a residual activity [33] of 100%, a residual activity [34] of 100% and a residual activity [35] of 100%. The residual activity [36] was 60.9%, the residual activity [37] was 100% and the residual activity [38] was 99.6%. The residual activity [39] was 77.2%, the residual activity [40] was 49.5% and the residual activity [41] was 100%. The residual activity [42] was 97.9%, the residual activity [43] was 31.2% and the residual activity [44] was 100%.
